Experimental data taken from patent US20190086391A1, “METHOD AND SYSTEM FOR CONTINUOUS BIOSENSING” (Yissum Research Development Company of the Hebrew …, priority 2016, published 2019).
Like-named read-outs stand apart in the source and are kept apart here.

Legend:
[1] = system: primary human hepatocytes; settings: cited from earlier work
[2] = Real-time oxygen uptake in perfused microwell bioreactor; assay type: cell-based, human; settings: human
Procedure: (§1) PDMS microwell inserts were sterilized with 70% EtOH and 30 min exposure to UV light prior to cell seeding. Cells were trypsinized, counted and centrifuged at 300×g for 5 min at 4° C. The pellet was then mixed with […] CPOx-50-RuP oxygen-sensing beads (Colibri Photonics, Germany) and resuspended in 100 μl of ice-cold solution of collagen type I (BD Biosciences, USA) for a final seeding density of 4×10^6 cells/ml. The PDMS microwell insert was placed on ice and coated with ice-cold collagen solution for 5 min to remove air bubbles. Then 100 μl of collagen type I suspension containing cells and oxygen-sensing beads was layered on top the wells and incubated for 10 min on ice. The low temperature prevented premature collagen polymerization and the induction of cellular stress response pathways. Afterwards, excess cell and microbead suspension was gently wiped off the microwell insert using a sterile glass coverslip leading to a concentration of 100,000 cells and 20 oxygen-sensing beads per well. Variance in cell density between individual wells and between bioreactors was less than 10% measured by DNA content. The inoculated microwell insert was then incubated for 5 min at 37° C. to polymerize the collagen. Following polymerization, the insert was immersed in 5 ml of cell culture medium and incubated for 20 min at 37° C. prior to being sealed in the bioreactor housing. Bioreactors were then placed in a climate control chamber (Evotec, Germany) on an IX81 fluorescence microscope (Olympus, Japan). Bioreactors were continuously perfused with cell culture medium noted above supplemented with 10 mM HEPES and 1% DMSO at a flow rate of 2 μl/min. The automated and motorized microscope stage was equipped with a holder for three microreactors, allowing three experiments to run simultaneously.
(§2) Troglitazone (T2573), and rotenone (R8875) were purchased from Sigma-Aldrich (Schnelldorf, Germany) and diluted from H2O or DMSO stock concentration 1:1000 into HepG2/C3A culture medium. Exposure onset was calculated to within ±1 min based on volumetric flow rate, considering the length of the tubing and bioreactor volume.
(§3) Real-time oxygen measurements were performed optically using lifetime-based luminescencequenching as previously described (11). […] Excited by a sinusoidal amplitude-modulated 532 nm LED source, the microbeads emit a sinusoidal amplitudemodulated light at 605 nm that is shifted in phase due to oxygen quenching (FIG. 2D). To overcome the superposition of in-phase background fluorescence that alters the phase of the detected signal, a 53.5 kHz and 31.3 kHz two-frequency phase modulation was used. This allowed screening out background interference (26-28). Measurements were carried out by averaging 5 consecutive 3 second exposures, followed by 17 seconds intervals, for a total of 100 seconds. Measurements were taken every 15 minutes for as long as 28 days with no phototoxicity, signal drift, or relevant loss of signal intensity. The apparatus consists of the OPAL package (Colibri Photonics, Germany) that is comprised of a control module, 532 nm LED, and a photomultiplier (PMT) detector mounted on the ocular of an […] Olympus microscope (Olympus, Japan). A filter cube with 531/40 (Ex), 607/70 (Em) was inserted in the optical light path during measurements.

[3] = system: HepG2/C3A cells; test: as above; assay type: cell-based, human
Procedure: as §1, §2, §3

[4] = system: HepG2/C3A spheroids; test: Offline glutamine uptake in bioreactor perfusate; assay type: cell-based, human; settings: 50 μM
Procedure: Glutamine concentration was determined using glutamine and glutamate determination kit (Sigma-Aldrich). Bioreactors containing HepG2/C3A spheroids were set up as described in the main text and perfused at 2 μl/min. Perfusate samples were collected for 60 minutes for a total of 120 μl per sample. Glutamine was quantified according to manufacturer directions.

[5] = system: HepG2/C3A cells; test: JC-1 mitochondrial membrane potential staining; assay type: cell-based, human; settings: 50 μM
Procedure: JC-1 cell permeable dye was purchased from Life Technologies (New York, N.Y.). HepG2/C3A cells were incubated with 50 μM of troglitazone or rotenone for varying durations. To evaluate mitochondrial membrane potential at each time point, cells were incubated with 5 μM JC-1 dye for 30 min, washed with PBS and imaged by confocal microscopy on a LSM700 (Zeiss, Germany). […] Consequently, mitochondrial depolarization is quantified by dividing red over green fluorescence intensity.

[6] = system: HepG2/C3A cells; test: Real-time amperometric glucose and lactate measurements in bioreactor outflow; assay type: cell-based, human; settings: for total glucose uptake rate: 50 μM treated cells
Procedure: Amperometric glucose and lactate sensors were purchased from BioSensor Technology (Berlin, Germany) and embedded in a CNC-fabricated PMMA flow-chamber with an inner volume of 26 μl. The sensors are based on the enzymatic reactions of glucose oxidase, with a linear range of 0.5 mM to 30 mM, and lactate oxidase, with a linear range of 0.5 mM to 20 mM. Both sensors produce H2O2 in amounts proportional to the measured metabolite, which is detected with platinum electrodes under polarized condition. The microfluidic controller (13) was programmed to open a microfluidic valve every hour, allowing a 40 μl medium sample to flow through the switchboard and into the sensors unit. Amperometric measurement lasted 200 seconds and was followed by automated perfusion of PBS washing solution, CAL 4+M calibration buffer (Eschweiler, Germany), and 4 seconds of air bubble acting as a diffusion barrier between samples. Reading was carried out on EmStat3 OEM embedded potentiostat (PalmSens, Netherlands) connected to the central computer.
Glucose uptake, oxygen uptake and lactate production rates were measured by calculating the change in metabolite concentration between the bioreactor in- and outflow, as function of perfusion rate and cell number as described above. Metabolic rates were calculated assuming negligible contribution to oxygen uptake by fatty acid oxidation and enzymatic activity. Low level of lipids in the culture medium ensured that fatty acid uptake was 50-fold lower than glucose while glutamine contribution to the Krebs cycle was minor (results).

[7] = 50 μM, after 6 hours of exposure
[8] = 50 μM, within the first 2 hours

C=C(C)[C@H]1Cc2c(ccc3c2O[C@@H]2COc4cc(OC)c(OC)cc4[C@@H]2C3=O)O1 [rotenone]
CC50 [1]: 2 µM
CC50 at 12 h ([2]; after 12 hours, read-out: TC50 (dose dependence of oxygen uptake)): 12.5 µM
oxygen uptake, % of normal respiration ([3]; 1 μM, 12 hours exposure): 35%
reduction of oxygen uptake ([3]; 50 μM): 80%
oxygen uptake, % of normal respiration ([3]; 50 μM, 12 hours exposure): 27%
oxygen uptake, % of normal respiration ([3]; 200 μM, 12 hours exposure): 15%
time to onset of mitochondrial damage ([3]; 0.2 mM): ≤ 6 min
time within which the majority of the effect on oxygen uptake occurred ([3]; 1, 50, 200 μM): ≤ 60 min
time to onset of mitochondrial damage, in words ([3]; dose-dependent): in minutes rather than hours
glutamine uptake (outlet-inlet), in words [4]: increase in glutamine uptake
increase in glutamine consumption (offline measurement) [4]: 30±4 folds
increase in mitochondrial membrane potential (MMP) ([5]; within 3 hours of exposure): 40±6%
effect on mitochondrial membrane potential (MMP), in words ([5]; rotenone after 3 hours, troglitazone along 6 hours): significant increase
exposure time after which the metabolic shift from oxidative phosphorylation to glycolysis occurred ([6]; 50 μM): 3 h
total glucose uptake rate [6]: 1.0 nmol/min/10^6
lactate over glucose ratio ([6]; 50 μM, 6 hours after exposure): 6.1
additional drop in glucose uptake [6, 7]: 65%
change in lactate production [6, 7]: no change
lactate over glucose ratio ([6]; 50 μM, within 3 hours after exposure): 2.6
drop in glucose uptake [6, 8]: 59%
drop in lactate production [6, 8]: 35%
lactate over glucose ratio ([6]; gradual switch to compensatory mechanisms): above 2

Cc1c(C)c2c(c(C)c1O)CCC(C)(COc1ccc(CC3SC(=O)NC3=O)cc1)O2 (stereo not drawn) [troglitazone]
CC50 ([1]; read-out: TC50 in primary hepatocytes): 100 µM
CC50 at 24 h [2]: 285 µM
reduction of oxygen uptake ([3]; 50 μM): 10%
oxygen uptake, % of normal respiration ([3]; 350 μM, 24 hours exposure): 32%
oxygen uptake, % of normal respiration ([3]; 500 μM, 24 hours exposure): 15%
oxygen uptake, % of normal respiration ([3]; 2000 μM, 24 hours exposure): 8%
increase in glutamine consumption (offline measurement) [4]: 5±2 folds
increase in mitochondrial membrane potential (MMP) ([5]; over 6 hours of exposure): 33±7%
total glucose uptake rate [6]: 2.5 nmol/min/10^6
lactate over glucose ratio ([6]; 50 μM, 6 hours after exposure): 1.8
increase in lactate production ([6]; 50 μM, within 4 to 5 hours): 51%
